Laboratory results as given in patent publication EP0095833A2 (priority 1982, dated 1983).
Read-outs that look alike come from different tables or passages of the source.

How the values were obtained:
VSV [1] = tested on: VSV
VSV [2] = format: cell-based; settings: for Titer obtained (PFU/ml): pretreated for 2 hours, one-step growth (18 hours)
Sindbis virus = settings: BHK-21 cells; 0.1 mM chloroquine or 10 µg of cytochalasin B for thirty minutes before infection; Sindbis virus 5,000 PFU; 30 or 60 minutes at room temperature; cited from earlier work
[3] = tested on: vesicular stomatitis virus; settings: cited from earlier work
VSV [4] = format: cell-based; settings: 20 mM
Vaccinia virus = format: cell-based
Reovirus III = format: cell-based
Polio virus = format: cell-based
VSV [5] = format: cell-based; settings: HeLa cells, Figure 2
VSV [6] = format: cell-based
VSV [7] = format: cell-based; remark: listed apart in the source
[8] = 20 mM, added from 2 hours before inoculation
[9] = 20 mM NH4Cl from the second hour before infection to the eighteenth hour after, Figure 7 panel A
[10] = 20 mM NH4Cl from the second hour before inoculation to the seventh hour after, Figure 5 panel A

Cc1cc2nc3ccc(N(C)C)cc3nc2cc1N.Cl [Neutral Red]
virucidal effect (VSV [1]; procedure of Example III, at these concentrations (70 µM and 100 µM)): no virucidal effect
Titer obtained (PFU/ml) (VSV [2]; 70 µM Neutral Red): 9.0 x 10^7 PFU/ml
growth of VSV (VSV [2]; 100 µM (29 µg/ml)): completely inhibits
Titer obtained (PFU/ml) (VSV [2]; 100 µM Neutral Red): 0 PFU/ml

CCN(CC)CCCC(C)Nc1ccnc2cc(Cl)ccc12 (centres unmarked) [chloroquine]
internalization by endocytosis of the virus (Sindbis virus): either enhanced or took place normally

C=C1[C@@H](C)[C@H]2[C@H](Cc3ccccc3)NC(=O)[C@]23OC(=O)/C=C/[C@H](O)CCC[C@@H](C)C/C=C/[C@H]3[C@@H]1O [cytochalasin B]
internalization by endocytosis of the virus (Sindbis virus): blocked
yields of VSV [3]: the same as untreated (control) cells

Cl.N [NH4Cl, ammonium chloride]
development of VSV (VSV [4]; added from 2 hours before inoculation): completely inhibits
development of VSV, compared with Table I (VSV [4]; in L, BHK, and BGM cells): Identical results
viral development of Vaccinia (Vaccinia virus; [8]): No action
Virions produced in infected 20mM NH4Cl* treated cells (Vaccinia virus; L cells, Vaccinia virus, 20 mM NH4Cl from 2 hours before inoculation, end of one step growth): 3.5 x 10^6PFU/ml
development of Reovirus (Reovirus III): completely inhibits
development of Reovirus III, compared with Table I (Reovirus III; 20 mM): Identical results
viral development of Polio virus (Polio virus; [8]): No action
Virions produced in infected 20mM NH4Cl* treated cells (Polio virus; BGM cells, Polio virus, 20 mM NH4Cl from 2 hours before inoculation, end of one step growth): 4.15 x 10^8PFU/ml
virucidal effect against VSV (VSV [1]; 20 mM NH4Cl in PBS, incubated at 37°C, titrated at various times): no virucidal effect
lag period before rather normal viral RNA synthesis (VSV [5]; 20 mM NH4Cl from 2 hours before inoculation, withdrawal at the sixth hour after inoculation): 6 h
viral RNA synthesis (VSV [5]; 20 mM NH4Cl from 2 hours before to 18 hours after inoculation): seriously reduced
viral RNA synthesis (VSV [5]; 20 mM NH4Cl only added after inoculation, until 18 hours): strongly reduced
viral cores and virions in supernatant (VSV [6]; treated from the second hour before inoculation to the eighteenth hour after, Figure 3 panel B): neither viral cores nor virions
virions in supernatant (VSV [6]; treated from the second hour before to the sixth hour after inoculation, 18 hours, versus untreated, Figure 3 panel A): lower amount
viral cores in supernatant (VSV [6]; treated immediately after inoculation, 18 hours, versus untreated, Figure 3 panel B): lower level
infection (viral m RNAs and 42S mature RNA in cytoplasmic extracts) (VSV [7]; 20 mM NH4Cl from immediately after inoculation to the eighteenth hour after, Figure 7 panel B): slight reduction
42S viral RNA in cytoplasmic extracts (VSV [7]; [9]): do not contain
viral m RNAs in cytoplasmic extracts (VSV [7]; [9]): do not contain
amount of 42S mature viral RNA in cytoplasmic extracts (VSV [7]; 20 mM NH4Cl from the second hour before infection to the sixth hour after, 18 hours after infection, Figure 6 panel B): lower than in untreated cells
viral m RNAs (31S, 17S, 14.5S, 12S) in cytoplasmic extracts (VSV [7]; 20 mM NH4Cl from the second hour before infection to the sixth hour after, 18 hours after infection, versus untreated, Figure 6 panel B): more
complete virus (625S) in cytoplasmic extract (VSV [7]; [10]): large amount
viral cores (120s) in cytoplasmic extract (VSV [7]; [10]): negligible amount
